Laboratory results taken from patent publication US20240139144A1, “COPPER CHELATOR, ANTICANCER AGENT AND PROPHYLACTIC OR THERAPEUTIC AGENT FOR WILSON'S DISEASE” (Murata Manufacturing Co., Ltd., priority 2021, published 2024).

Tests used:
[1] = Evaluation of copper chelating action by LC-MS after addition of CuCl2; assay type: binding; conditions: for copper chelating action: 10 mM compound in methanol, aqueous CuCl2 added to final 100 mM, shaken at 30° C. for 60 minutes, LC-MS; for peak of the ion of the compound (free compound) in the sample in which a copper ion was added / peak of the ion of the complex of the compound and a copper ion in the sample in which a copper ion was added: LC-MS positive mode, CuCl2 100 mM, 30° C., 60 minutes; for peak of the ion of the compound (free compound) in the sample in which a copper ion was added: m/z 379.00 for (1a), m/z 397.00 for (2a); for peak of the ion of the complex of the compound and a copper ion in the sample in which a copper ion was added: m/z 441.00 for (1a), m/z 459.00 for (2a)
Protocol: (Method for Evaluating Copper Chelating Action)
An aqueous CuCl2 solution was added to a methanol solution of 10 mM compound (1a) or 10 mM compound (2a) so as to have a final concentration of 100 mM, and the mixture was shaken at 30° C. for 60 minutes, and then analyzed by LC-MS. A methanol solution of 10 mM compound (la) or 10 mM compound (2a) to which an aqueous CuCl2 solution was not added was also analyzed by LC-MS.
(LC-MS measurement conditions)
Pure water to which 0.1% formic acid was added was used as a solvent A, and acetonitrile was used as a solvent B. The samples were separated on a reversed-phase column (Cosmosil 5.0C 18-MS-II 2.0×100 mm (manufactured by Nacalai Tesque, Inc.)). At this time, the flow rate was set to 0.2 ml/min, and elution was performed in a gradient mode in which the proportion of the solvent B was set to 2% until 2 minutes, and then changed from 2 to 98% from 2 to 15 minutes. The eluted sample was ionized by electrospray ionization method in a positive mode.

[2] = test system: gram-positive bacteria; conditions: against gram-positive bacteria; cited from earlier work
[3] = test system: Candida albicans; conditions: against Candida albicans; cited from earlier work

| Molecule | copper chelating action [1] | peak of the ion of the compound (free compound) in the sample in which a copper ion was added [1] | peak of the ion of the complex of the compound and a copper ion in the sample in which a copper ion was added [1] | copper chelating action compared between compounds ([1]; comparison between FIGS. 1 and 2 and FIGS. 4 and 5) | antimicrobial activity [2] | antimicrobial activity [3] |
| --- | --- | --- | --- | --- | --- | --- |
| [C-]#[N+][C@@H](Cc1ccc(O)c(-c2cc(C[C@H]([N+]#[C-])C(N)=O)ccc2O)c1)C(N)=O [compound (1a)] | has a copper chelating action | not observed | observed | stronger than that of the compound (2a) | – | – |
| [C-]#[N+][C@@H](Cc1ccc(O)c(-c2cc(C[C@H](NC=O)C(N)=O)ccc2O)c1)C(N)=O [compound (2a)] | has a copper chelating action | small | observed | – | – | – |
| hazimycin A | – | – | – | – | antimicrobial activity | antimicrobial activity |
